Assay results taken from PubChem BioAssay AID2060493 (Molecular Pharmacology Branch, DTP, NCI, 2025).
Several values for one entry are separate records, joined by “and”; a condition that tells them apart may be missing. Equal values may be shown once.

System: 616215-338-R-J1-PDC tumor spheroids, viability
Assay: Anticancer human tumor 616215-338-R-J1-PDC patient-derived colon adenocarcinoma cell line growth inhibition [GQUAD]
Details: spheroids with HUVEC and MSC; for viability, T/C: stronger effect = lower value
Source text: DNA G-quadruplex Stabilizer Agents in Combinations in Complex Spheroids
A high-throughput screen of multi-cell type tumor spheroids was designed to identify active combinations of DNA G-quadruplex stabilizer agents and targeted small molecules. Complex spheroids include a stromal component modeled by human endothelial cells (HUVEC) and fibroblasts modeled by human mesenchymal stem cells (MSCs). The concentration ranges selected for each drug and investigational agent were based upon clinically achievable concentrations if the clinical Cmax of the agent was known.
Compounds. The drugs and investigational agents: pidnarulex (CX-5461; NSC782164), APTO-253 (NSC789042), BRACO-19 (NSC847499), peposertib (NSC802822), ceralasertib (NSC780249), elimusertib (NSC800525), camonsertib (NSC841442), AZD-1390 (NSC803789), olaparib (NSC753686), talazoparib (NSC767125), ART-558 (NSC835418), sotorasib (NSC818433), MRTX-1133 (NSC836407), SN-38 (NSC673596), topotecan (NSC609699), etoposide (NSC141540), doxorubicin (NSC123127), gemcitabine (NSC613327), 5-fluorouracil (NSC19893), paclitaxel (NSC125973), vemurafenib (NSC761431), panobinostat (NSC761190), R-306465 (JNJ-16241199; NSC773264), adavosertib (NSC754352), TP-3654 (NSC805149), carboplatin (NSC241240), KSQ-4279 (NSC840948), and staurosporine (NSC755774) were obtained from the National Cancer Institute (NCI) Developmental Therapeutics Program Chemical Repository (34). The FDA-approved anticancer drug set is available from the NCI Developmental Therapeutics Program. […] The stock solutions were prepared in dimethyl sulfoxide (DMSO, Sigma-Aldrich, St. Louis, MO, cat. D2650) at 800-fold the tested concentration and stored at -70 degrees C prior to their use. All drugs and investigational agents were tested over a range starting from a high concentration at or near the clinical Cmax and decreasing in half-log increments. If the clinical Cmax for an agent had not been determined, the highest concentration tested was 10 microM.
2.3 Cell Culture. All cells were maintained in an incubator at 37 degrees C and 5% CO2 with 95% humidity. The PDC lines were cultured according to standard operating procedures established by the NCI PDMR. All PDCs were thawed and cultured in Matrigel-coated flasks prepared with a working solution of 1X Ham's F-12 nutrient mix, without supplementation (Invitrogen, cat. 11765054), 100 U/mL penicillin-streptomycin (Invitrogen, cat. 15140122), and 2.5% Matrigel (Corning Inc., cat. 354248) for the first three passages. The 857933-349-R-J2-PDC line was cultured in 6C/Colon 1B media, which includes advanced DMEM/F-12 (Thermo Fisher Scientific, cat. 12634028), 10 mM HEPES (Thermo Fisher Scientific, cat. 15630080), 1X GlutaMAX supplement (Thermo Fisher Scientific, cat. 35050061), 0.1 mg/mL primocin (InvivoGen, cat. ant-pm-2), 10% defined fetal bovine serum, heat inactivated (HyClone Laboratories Inc., cat. SH30070.03HI), 50% L-WRN conditioned media (ATCC, cat. CRL-3276), 1.25 mM N-Acetyl-L-cysteine (Sigma-Aldrich, cat. A9165), 10 mM nicotinamide (Sigma-Aldrich, cat. N0636), 1X B-27 supplement (Thermo Fisher Scientific, cat. 17504044), 1X N-2 supplement (Thermo Fisher Scientific, cat. 17502048), 10 microM Y-27632 dihydrochloride (Tocris Bioscience, cat. 1254), and 50 ng/mL human EGF recombinant protein (Thermo Fisher Scientific, cat. PHG0311). The 485176-168-R4-J1-PDC line was cultured in Panc media, which includes all 6C/Colon 1B media components plus 100 ng/mL human FGF-10 (Thermo Fisher Scientific, cat. 100-26), 500 nM SB-431542 (Selleckchem, cat. S1067), and gastrin (Tocris, cat. 3006).
[…]

[1] = curve of first compound, second compound 0.0316 µM
[2] = curve of first compound, second compound 0.1 µM
[3] = curve of first compound, second compound 0.316 µM
[4] = curve of first compound, second compound 1 µM
[5] = curve of first compound, second compound 3.16 µM
[6] = curve of first compound, second compound 10 µM
[7] = second compound 0.0316 µM, first compound 0.0316 µM
[8] = second compound 0.0316 µM, first compound 0.1 µM
[9] = second compound 0.0316 µM, first compound 0.316 µM
[10] = second compound 0.0316 µM, first compound 1 µM
[11] = second compound 0.0316 µM, first compound 3.16 µM
[12] = second compound 0.0316 µM, first compound 10 µM
[13] = second compound 0.1 µM, first compound 0.0316 µM
[14] = second compound 0.1 µM, first compound 0.1 µM
[15] = second compound 0.1 µM, first compound 0.316 µM
[16] = second compound 0.1 µM, first compound 1 µM
[17] = second compound 0.1 µM, first compound 3.16 µM
[18] = second compound 0.1 µM, first compound 10 µM
[19] = second compound 0.316 µM, first compound 0.0316 µM
[20] = second compound 0.316 µM, first compound 0.1 µM
[21] = second compound 0.316 µM, first compound 0.316 µM
[22] = second compound 0.316 µM, first compound 1 µM
[23] = second compound 0.316 µM, first compound 3.16 µM
[24] = second compound 0.316 µM, first compound 10 µM
[25] = second compound 1 µM, first compound 0.0316 µM
[26] = second compound 1 µM, first compound 0.1 µM
[27] = second compound 1 µM, first compound 0.316 µM
[28] = second compound 1 µM, first compound 1 µM
[29] = second compound 1 µM, first compound 3.16 µM
[30] = second compound 1 µM, first compound 10 µM
[31] = second compound 3.16 µM, first compound 0.0316 µM
[32] = second compound 3.16 µM, first compound 0.1 µM
[33] = second compound 3.16 µM, first compound 0.316 µM
[34] = second compound 3.16 µM, first compound 1 µM
[35] = second compound 3.16 µM, first compound 3.16 µM
[36] = second compound 3.16 µM, first compound 10 µM
[37] = second compound 10 µM, first compound 0.0316 µM
[38] = second compound 10 µM, first compound 0.1 µM
[39] = second compound 10 µM, first compound 0.316 µM
[40] = second compound 10 µM, first compound 1 µM
[41] = second compound 10 µM, first compound 3.16 µM
[42] = second compound 10 µM, first compound 10 µM
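Further: spheroids exposed to agents for 7 days before readout.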
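Wherever viability, T/C is given: percent viability relative to DMSO vehicle control wells taken as 100%.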

Compound `O=c1[nH]cc(F)c(=O)[nH]1` + Cc1cnc(CNC(=O)c2c(=O)c3ccc(N4CCCN(C)CC4)nc3n3c2sc2ccccc23)cn1 has an IC50 [1] of 786 nM, an IC50 [2] of 559 nM and an IC50 [3] of less than 31.6 nM. It also gave an IC50 [4] of less than 31.6 nM, an IC50 [5] of less than 31.6 nM and an IC50 [6] of less than 31.6 nM. The viability, T/C [7] was 98.8%, the viability, T/C [8] was 98.7% and the viability, T/C [9] was 62.9%. The viability, T/C [10] was 51.5%, the viability, T/C [11] was 40.4% and the viability, T/C [12] was 35.8%. It also gave a viability, T/C [13] of 66.8%, a viability, T/C [14] of 62.4% and a viability, T/C [15] of 54.1%. The viability, T/C [16] was 40.4%, the viability, T/C [17] was 46.5% and the viability, T/C [18] was 31.5%. It also gave a viability, T/C [19] of 40.9%, a viability, T/C [20] of 48.7% and a viability, T/C [21] of 54.6%. It also gave a viability, T/C [22] of 36.1%, a viability, T/C [23] of 43% and a viability, T/C [24] of 39.2%. It also gave a viability, T/C [25] of 32.4%, a viability, T/C [26] of 39.2% and a viability, T/C [27] of 42.6%. It also gave a viability, T/C [28] of 33.4%, a viability, T/C [29] of 36.6% and a viability, T/C [30] of 22.4%. For the same compound, the viability, T/C [31] was 31.7%, the viability, T/C [32] was 25.2% and the viability, T/C [33] was 22.1%. For the same compound, the viability, T/C [34] was 30.3%, the viability, T/C [35] was 34.1% and the viability, T/C [36] was 28.7%. It also gave a viability, T/C [37] of 25.7%, a viability, T/C [38] of 28.7% and a viability, T/C [39] of 25.6%. For the same compound, the viability, T/C [40] was 30.3%, the viability, T/C [41] was 25.6% and the viability, T/C [42] was 30.4%.

`COc1ncnc(C2CC2)c1-c1ncc2cnn(Cc3ccc(-c4nc(C(F)(F)F)cn4C(C)C)cc3)c2n1` was tested, and the viability, T/C (compound 0.0316 µM) was 113% and 96.4% and 110%, the viability, T/C (compound 0.1 µM) was 108% and 109% and 97.3% and the viability, T/C (compound 0.316 µM) was 99.2% and 103% and 102%. For the same compound, the viability, T/C (compound 1 µM) was 116% and 99.7% and 105%, the viability, T/C (compound 3.16 µM) was 106% and 100% (2×) and the viability, T/C (compound 10 µM) was 106% and 92.4% and 93.6%. For the same compound, the IC50 (curve of compound) was greater than 10000 nM.

`C=CCn1c(=O)c2cnc(Nc3ccc(N4CCN(C)CC4)cc3)nc2n1-c1cccc(C(C)(C)O)n1` + Cc1cnc(CNC(=O)c2c(=O)c3ccc(N4CCCN(C)CC4)nc3n3c2sc2ccccc23)cn1 was tested, and the IC50 [1] was 255 nM, the IC50 [2] was 131 nM and the IC50 [3] was less than 31.6 nM. The IC50 [4] was less than 31.6 nM, the IC50 [5] was less than 31.6 nM and the IC50 [6] was less than 31.6 nM. The viability, T/C [7] was 110%, the viability, T/C [8] was 71.4% and the viability, T/C [9] was 44.4%. It also gave a viability, T/C [10] of 32.2%, a viability, T/C [11] of 23.4% and a viability, T/C [12] of 21.9%. It also gave a viability, T/C [13] of 57.2%, a viability, T/C [14] of 55% and a viability, T/C [15] of 40.1%. For the same compound, the viability, T/C [16] was 38.3%, the viability, T/C [17] was 24.4% and the viability, T/C [18] was 17.8%. The viability, T/C [19] was 44.1%, the viability, T/C [20] was 39.4% and the viability, T/C [21] was 30%. The viability, T/C [22] was 30.2%, the viability, T/C [23] was 27.7% and the viability, T/C [24] was 21%. The viability, T/C [25] was 29.8%, the viability, T/C [26] was 30.8% and the viability, T/C [27] was 21%. For the same compound, the viability, T/C [28] was 21.9%, the viability, T/C [29] was 25.2% and the viability, T/C [30] was 17.3%. It also gave a viability, T/C [31] of 31.2%, a viability, T/C [32] of 31.8% and a viability, T/C [33] of 19.8%. For the same compound, the viability, T/C [34] was 17.5%, the viability, T/C [35] was 12.2% and the viability, T/C [36] was 16.8%. For the same compound, the viability, T/C [37] was 25.1%, the viability, T/C [38] was 26.2% and the viability, T/C [39] was 13.2%. The viability, T/C [40] was 15.5%, the viability, T/C [41] was 16.8% and the viability, T/C [42] was 15.5%.
